Assay results published in patent US9636345B2, “Benzimidazole derivatives useful TRPM8 channel modulators” (Janssen Pharmaceutica NV, priority 2009, dated 2017).
pIC50: −log10 of the molar value. Like-named read-outs stand apart in the source and are kept apart here.

Target: T1, canine TRPM8 (Canis lupus familiaris, UniProt Q1A7N1)
T1 construct: expressed in transfected cells
Experiment: In vitro canine TRPM8 functional assay (icilin-induced intracellular Ca2+ increase, FLIPR/FDSS)
Format: cell-based
Details: for % Inh @ 0.2 μM / inhibition at 0.2 µM: 0.2 μM compound, HEK293 canine TRPM8; for % Inh @ 1 μM / inhibition at 1 µM: 1 μM compound, samples diluted from 10 mM stock with 100% DMSO; for pIC50: read-out: IC50
Description: The functional activity of representative compounds of the formula (I) of the present invention was quantified by measuring changes in intracellular calcium concentration using a Ca^2+-sensitive fluorescent dye. The changes in fluorescent signal were monitored by a fluorescence plate reader, either a FLIPR™ (Molecular Devices) or FDSS (Hamamatsu).
HEK293 cells stably expressing canine TRPM8 were routinely grown as monolayers in Dulbecco's minimum essential medium supplemented with 10% FBS, 2 mM L-glutamine, 100 units/mL penicillin, 100 ug/mL streptomycin and 400 μg/mL G418. Cells were maintained in 5% CO2 at 37° C. At 24 hr prior to assay, cells were seeded in black wall, clear-base poly-D-lysine coated 384-well plates (BD Biosciences, N.J., USA) at a density of 5,000 cells per well in culture medium and grown overnight in 5% CO2 at 37° C. On assay day, growth media was removed, and cells were loaded with Calcium 3 Dye (Molecular Devices) for 35 min at 37° C., under 5% CO2 and then incubated for 25 min at room temperature and atmosphere. Subsequently, cells were tested for agonist-induced increases in intracellular Ca^2+ levels using FLIPR™ or FDSS. Cells were treated with compounds of the formula (I) at varying concentrations and intracellular Ca^2+ was measured for 5 min prior to the addition of icilin to all wells to achieve a final concentration that produces approximately an 80% maximal response.
Basal FI was subtracted prior to normalizing data to percent of maximal response. Curves were generated using the average of quadruplicate wells for each data point using nonlinear regression of either sigmoidal dose response or sigmoidal dose response (variable slope). Finally, the EC50 and IC50 values were calculated with the best-fit curve determined by GraphPad Prism
Test samples were prepared by diluting a 10 mM stock solution of test compound with 100% DMSO prior to addition to assay buffer.

[1] = re-test, samples diluted from 10 mM stock with 100% DMSO before addition to assay buffer, Table 7
[2] = HEK293 cells stably expressing canine TRPM8, icilin at ~80% maximal response, Table 6

T1 sequence (Q1A7N1 1-1104): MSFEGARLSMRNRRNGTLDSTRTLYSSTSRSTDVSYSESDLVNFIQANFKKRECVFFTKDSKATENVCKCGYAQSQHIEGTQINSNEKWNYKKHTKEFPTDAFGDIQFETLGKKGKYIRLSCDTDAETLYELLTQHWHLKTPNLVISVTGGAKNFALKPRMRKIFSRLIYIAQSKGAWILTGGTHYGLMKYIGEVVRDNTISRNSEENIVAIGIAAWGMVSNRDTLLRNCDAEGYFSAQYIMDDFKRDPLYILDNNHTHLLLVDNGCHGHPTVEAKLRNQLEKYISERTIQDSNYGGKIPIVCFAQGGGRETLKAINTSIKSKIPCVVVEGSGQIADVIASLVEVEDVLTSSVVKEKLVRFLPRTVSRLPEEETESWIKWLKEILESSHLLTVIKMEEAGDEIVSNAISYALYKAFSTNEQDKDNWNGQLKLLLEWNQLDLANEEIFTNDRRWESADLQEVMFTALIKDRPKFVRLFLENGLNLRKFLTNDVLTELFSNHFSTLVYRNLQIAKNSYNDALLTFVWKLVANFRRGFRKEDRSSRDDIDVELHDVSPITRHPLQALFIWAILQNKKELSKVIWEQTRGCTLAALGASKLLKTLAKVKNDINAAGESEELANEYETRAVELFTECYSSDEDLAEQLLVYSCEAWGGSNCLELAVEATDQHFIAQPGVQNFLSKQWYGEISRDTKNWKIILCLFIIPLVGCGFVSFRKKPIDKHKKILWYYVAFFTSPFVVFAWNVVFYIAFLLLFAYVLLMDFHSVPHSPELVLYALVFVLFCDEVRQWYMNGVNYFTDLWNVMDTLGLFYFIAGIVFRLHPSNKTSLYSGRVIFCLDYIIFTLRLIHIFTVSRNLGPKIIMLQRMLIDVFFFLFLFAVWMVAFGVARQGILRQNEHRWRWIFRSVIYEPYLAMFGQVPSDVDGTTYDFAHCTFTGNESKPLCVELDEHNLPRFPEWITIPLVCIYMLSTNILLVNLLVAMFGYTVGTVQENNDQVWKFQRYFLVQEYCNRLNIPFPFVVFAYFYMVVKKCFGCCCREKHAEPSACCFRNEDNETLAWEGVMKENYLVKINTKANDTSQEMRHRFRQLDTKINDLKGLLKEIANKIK

Row | SMILES | % Inh @ 0.2 μM (Table 6) [%] | inhibition at 0.2 µM (Table 6) [%] | further results
1 | Cn1c(=NS(=O)(=O)c2ccccc2)n(Cc2ccc(F)c(C(F)(F)F)c2)c2ccccc21 [Compound 1] | 40 | – | –
2 | Cn1c(=NS(=O)(=O)c2ccccc2)n(Cc2ccc(OC(F)(F)F)cc2)c2ccccc21 [Compound 2] | 34 | – | –
3 | Cn1c(=NS(=O)(=O)c2ccccc2)n(Cc2ccccc2)c2ccccc21 [Compound 3] | 8 | – | % Inh @ 1 μM (re-test, Table 7): 40%
4 | Cn1/c(=N/S(=O)(=O)c2ccccc2)n(Cc2cccc(C(F)(F)F)c2)c2ccccc21 [Compound 4, N-[1-Methyl-3-(3-trifluoromethyl-benzyl)-1,3-dihydro-benzimidazol-2-ylidene]-benzenesulfonamide] | – | 42 | –
5 | Cn1c(=NS(=O)(=O)c2ccccc2)n(Cc2cccc(OC(F)(F)F)c2)c2ccccc21 [Compound 5] | 50 | – | –
6 | Cn1c(=NS(=O)(=O)c2ccccc2)n(Cc2ccc(C(F)(F)F)cc2)c2ccccc21 [Compound 6] | 2 | – | % Inh @ 1 μM (re-test, Table 7): 65%
7 | Cn1c(=NS(=O)(=O)c2ccccc2)n(Cc2ccc(F)c(F)c2)c2ccccc21 [Compound 7] | 24 | – | –
8 | Cn1c(=NS(=O)(=O)c2ccccc2)n(Cc2ccc(F)cc2)c2ccccc21 [Compound 8] | 20 | – | –
9 | Cn1c(=NS(=O)(=O)c2ccccc2)n(Cc2cc(C(F)(F)F)ccc2F)c2ccccc21 [Compound 9] | 39 | – | –
10 | Cn1c(=NS(=O)(=O)c2ccccc2)n(Cc2ccc(C(F)(F)F)c(F)c2)c2ccccc21 [Compound 10] | 22 | – | –
11 | Cn1c(=NS(=O)(=O)c2ccccc2)n(Cc2ccc(F)c(Cl)c2)c2ccccc21 [Compound 11] | 38 | – | –
12 | Cn1c(=NS(=O)(=O)c2ccccc2)n(Cc2ccc(SC(F)(F)F)cc2)c2ccccc21 [Compound 12] | 11 | – | –
13 | Cn1c(=NS(=O)(=O)c2ccccc2)n(Cc2ccc(OC(F)F)cc2)c2ccccc21 [Compound 13] | – | 9 | inhibition at 1 µM (re-test, Table 7): 55%; pIC50 [1]: 6.12
14 | CCn1c(=NS(=O)(=O)c2ccccc2)n(Cc2ccc(OC(F)(F)F)cc2)c2ccccc21 [Compound 14] | 75 | – | pIC50 [2]: 7.00
15 | CCn1c(=NS(=O)(=O)c2ccccc2)n(Cc2ccc(C(F)(F)F)cc2)c2ccccc21 [Compound 15] | 85 | – | pIC50 [2]: 7.16
16 | Cn1c(=NS(=O)(=O)c2ccc(F)cc2)n(Cc2ccc(C(F)(F)F)cc2)c2ccccc21 [Compound 16] | 1 | – | % Inh @ 1 μM (re-test, Table 7): 57%
17 | Cn1c(=NS(=O)(=O)c2ccc(F)cc2)n(Cc2ccc(OC(F)(F)F)cc2)c2ccccc21 [Compound 17] | – | 6 | inhibition at 1 µM (re-test, Table 7): 60%; pIC50 [1]: 6.22
18 | Cn1c(=NS(=O)(=O)c2ccc(C(F)(F)F)cc2)n(Cc2ccc(OC(F)(F)F)cc2)c2ccccc21 [Compound 18] | – | 1 | inhibition at 1 µM (re-test, Table 7): 57%; pIC50 [1]: 6.20
19 | Cn1c(=NS(=O)(=O)c2ccc(Cl)cc2)n(Cc2ccc(C(F)(F)F)cc2)c2ccccc21 [Compound 19] | 13 | – | –
20 | Cn1c(=NS(=O)(=O)c2ccc(Cl)cc2)n(Cc2ccc(OC(F)(F)F)cc2)c2ccccc21 [Compound 20] | – | 2 | inhibition at 1 µM (re-test, Table 7): 74%; pIC50 [1]: 6.37
21 | Cn1c(=NS(=O)(=O)c2ccc(C(F)(F)F)cc2)n(Cc2ccc(C(F)(F)F)cc2)c2ccccc21 [Compound 21] | – | 8 | inhibition at 1 µM (re-test, Table 7): 59%; pIC50 [1]: 6.23
22 | Cn1c(=NS(=O)(=O)c2ccc(Cl)cc2)n(Cc2ccc(C(F)(F)F)c(F)c2)c2ccccc21 [Compound 22] | 6 | – | % Inh @ 1 μM (re-test, Table 7): 77%; pIC50 [1]: 6.29
23 | Cn1c(=NS(=O)(=O)c2ccc(C(F)(F)F)cc2)n(Cc2ccc(C(F)(F)F)c(F)c2)c2ccccc21 [Compound 23] | – | 3 | inhibition at 1 µM (re-test, Table 7): 59%; pIC50 [1]: 6.12
24 | Cn1c(=NS(=O)(=O)c2ccc(F)cc2)n(Cc2ccc(C(F)(F)F)c(F)c2)c2ccccc21 [Compound 24] | 3 | – | % Inh @ 1 μM (re-test, Table 7): 85%; pIC50 [1]: 6.42
25 | CCn1c(=NS(=O)(=O)c2ccccc2)n(Cc2ccc(C(F)(F)F)c(F)c2)c2ccccc21 [Compound 25] | 62 | – | –
26 | CC(C)Cn1c(=NS(=O)(=O)c2ccccc2)n(Cc2ccc(C(F)(F)F)c(F)c2)c2ccccc21 [Compound 26] | – | 100 | pIC50 [2]: 7.85

Continued, in another order:

Row | % Inh @ 0.2 μM (Table 6) [%] | inhibition at 0.2 µM (Table 6) [%] | SMILES | further results
27 | 71 | – | CC(C)Cn1c(=NS(=O)(=O)c2ccccc2)n(Cc2ccc(C(F)(F)F)cc2)c2ccccc21 [Compound 27] | pIC50 [2]: 7.37
28 | – | 70 | CC(C)Cn1c(=NS(=O)(=O)c2ccccc2)n(Cc2ccc(OC(F)(F)F)cc2)c2ccccc21 [Compound 28] | pIC50 [2]: 7.24
29 | 19 | – | Cn1c(=NS(=O)(=O)c2ccccc2)n(Cc2ccc(C(F)(F)F)cc2)c2cc(C(F)(F)F)ccc21 [Compound 29] | –
30 | 17 | – | Cn1c(=NS(=O)(=O)c2ccccc2)n(Cc2ccc(OC(F)(F)F)cc2)c2cc(C(F)(F)F)ccc21 [Compound 30] | –
31 | – | 71 | Cn1c(=NS(=O)(=O)c2ccccc2)n(Cc2ccc(C(F)(F)F)c(F)c2)c2cc(C(F)(F)F)ccc21 [Compound 31] | pIC50 [2]: 7.41
32 | 70 | – | CCn1c(=NS(=O)(=O)c2ccccc2)n(Cc2ccc(C(F)(F)F)c(F)c2)c2cc(F)ccc21 [Compound 33] | –
33 | – | 95 | CC(C)n1c(=NS(=O)(=O)c2ccccc2)n(Cc2ccc(OC(F)(F)F)cc2)c2cc(C(F)(F)F)ccc21 [Compound 34] | pIC50 [2]: 7.62
34 | 100 | – | CC(C)n1c(=NS(=O)(=O)c2ccccc2)n(Cc2ccc(C(F)(F)F)c(F)c2)c2cc(C(F)(F)F)ccc21 [Compound 35] | pIC50 [2]: 8.00
35 | 36 | – | CCn1c(=NS(=O)(=O)c2ccccc2)n(Cc2ccc(OC(F)(F)F)cc2)c2cc(F)ccc21 [Compound 36] | –
36 | 1 | – | Cn1c(=NS(=O)(=O)c2ccccc2)n(Cc2ccc(C(F)(F)F)cc2)c2cc(F)ccc21 [Compound 38] | % Inh @ 1 μM (re-test, Table 7): 24%
37 | – | 26 | CCn1/c(=N/S(=O)(=O)c2ccccc2)n(Cc2ccc(C(F)(F)F)cc2)c2cc(F)ccc21 [Compound 39, N-[1-Ethyl-5-fluoro-3-(4-trifluoromethyl-benzyl)-1,3-dihydro-benzimidazol-2-ylidene]-benzenesulfonamide] | –
38 | – | 9 | O=S(=O)(N=c1n(Cc2ccc(C(F)(F)F)cc2)c2ccccc2n1CC(F)(F)F)c1ccccc1 [Compound 40] | inhibition at 1 µM (re-test, Table 7): 57%; pIC50 [1]: 6.37
39 | 6 | – | Cn1c(=NS(=O)(=O)c2ccccc2)n(Cc2ccc(C(F)(F)F)c(F)c2)c2cc(F)ccc21 [Compound 41] | % Inh @ 1 μM (re-test, Table 7): 79%
40 | – | 95 | CC(C)n1c(=NS(=O)(=O)c2ccccc2)n(Cc2ccc(C(F)(F)F)c(F)c2)c2cc(Cl)ccc21 [Compound 42] | pIC50 [2]: 7.59
41 | – | 89 | O=S(=O)(/N=c1\n(Cc2ccc(C(F)(F)F)c(F)c2)c2ccccc2n1CC(F)(F)F)c1ccccc1 [Compound 43, N-[1-(3-Fluoro-4-trifluoromethyl-benzyl)-3-(2,2,2-trifluoro-ethyl)-1,3-dihydro-benzimidazol-2-ylidene]-benzenesulfonamide] | pIC50 [2]: 7.68
42 | 37 | – | O=S(=O)(N=c1n(Cc2ccc(OC(F)(F)F)cc2)c2ccccc2n1CC(F)(F)F)c1ccccc1 [Compound 44] | –
43 | 66 | – | CC(C)n1c(=NS(=O)(=O)c2ccccc2)n(Cc2ccc(OC(F)(F)F)cc2)c2cc(Cl)ccc21 [Compound 45] | –
44 | 1 | – | Cn1c(=NS(=O)(=O)c2ccccc2)n(Cc2ccc(OC(F)(F)F)cc2)c2cc(F)ccc21 [Compound 46] | % Inh @ 1 μM (re-test, Table 7): 58%
45 | 67 | – | O=S(=O)(N=c1n(Cc2ccc(OC(F)(F)F)cc2)c2ccccc2n1CC1CC1)c1ccccc1 [Compound 48] | –
46 | – | 71 | O=S(=O)(N=c1n(Cc2ccc(C(F)(F)F)cc2)c2ccccc2n1CC1CC1)c1ccccc1 [Compound 49] | pIC50 [2]: 6.96
47 | – | 94 | O=S(=O)(/N=c1\n(Cc2ccc(C(F)(F)F)c(F)c2)c2ccccc2n1CC1CC1)c1ccccc1 [Compound 50, N-[1-Cyclopropylmethyl-3-(3-fluoro-4-trifluoromethyl-benzyl)-1,3-dihydro-benzimidazol-2-ylidene]-benzenesulfonamide] | pIC50 [2]: 7.07
48 | 14 | – | O=S(=O)(N=c1n(Cc2ccc(C(F)(F)F)c(F)c2)c2cccc3c2n1CCC3)c1ccccc1 [Compound 51] | –
49 | 18 | – | O=S(=O)(N=c1n(Cc2ccc(OC(F)(F)F)cc2)c2cccc3c2n1CCC3)c1ccccc1 [Compound 52] | –
50 | 16 | – | O=S(=O)(N=c1n(Cc2ccc(C(F)(F)F)cc2)c2cccc3c2n1CCC3)c1ccccc1 [Compound 53] | –
